# According to US8466164B2:
# Columns and labels:
# [1] = tested on: Src-Y416 phosphorylation in SaOS-2; test: immunoblotting of phospho-Src-Y416 in SaOS-2; assay type: cell-based, human; details: SaOS-2, compounds at their IC50, 3 h
# Method: Compounds were used at their corresponding IC50. Cells were treated for 3 h prior to their lysis. A) Specific c-Src phosphorylation was evaluated when whole-cell lysates were immunoprobed with anti-nonphospho-Src-Y416 and anti-phospho-Src-Y416 antibodies. B) Graph reports the optical density values relative to immunoreactive bands of phospho-Src-Y416. […] C) Graphical representation of SI-83 (magenta) into the ATP binding pocket of Src. The solvent accessible surface of residues is depicted (blue), while several amino acids, responsible for the major hydrophobic contacts with the binding site, are also shown (cyan).
# For Phospho-SrcY416 detection, cells were lysed in ice-cold 0.1% SDS containing a cocktail of protease inhibitors and 1 mM sodium orthovanadate (Sigma-Aldrich). […] All antibodies employed were from Cell Signaling Technology ([…], USA). Proteins were probed with primary antibodies o.n. at 4° C., followed by secondary antibodies for 1 h at room temperature. Detection was obtained by ImmunoStar HRP™ (BioRad). Band areas were detected using ImageScanner™ (Amersham Bioscience, Little Chalfont, GB) and bands' optical densities were analysed by Image Master software (Amersham Bioscience). Band optical densities of Phospho-SrcY416 were normalized against those of total Src as an internal control.
# SaOS-2 cells [2] = test: TUNEL assay on SaOS-2; assay type: cell-based, human; details: 48 h treatment, 12.5 μM
# SaOS-2 cells [3] = test: MTT cell viability assay on SaOS-2; details: for CV (%) after 24 h (cellular viability with respect to control): 24 h treatment; for CV (%) after 24 h (cellular viability with respect to control) / CV (%) after 48 h (cellular viability with respect to control): control = 100%, mean ± SD; for CV (%) after 48 h (cellular viability with respect to control): 48 h treatment, 25 μM; for IC50: read-out: IC50 on SaOS-2 cell viability, MTT, 1-100 μM, 48 h
# normal human osteoblasts = test: nodule formation and mineralization (alizarin red S); details: IC5, IC20, IC50 (SaOS-2); for tolerance of treatment by osteoblasts: three weeks
# [4] = tested on: primary human osteoblasts; test: MTT cell viability assay on primary human osteoblasts; details: 48 h; for reduction of osteoblast growth (inhibitory activity): 25 μM
# SaOS-2 cells [5] = test: flow cytometric cell cycle/apoptosis analysis on SaOS-2; details: 48 h, 3 μM to 100 μM
# [6] = tested on: primary human osteoblasts; test: flow cytometric apoptosis analysis on primary osteoblasts; details: for reduction of pro-apoptotic effect on osteoblasts respecting to SaOS-2: at IC50 (determined on SaOS-2), 48 h
# recombinant human Src = recombinant human Src (Homo sapiens, UniProt P12931); test: cell-free Src enzymatic assay; assay type: biochemical; details: calculated from ID50; triplicate, mean values; read-out: Ki toward recombinant human Src
# [7] = tested on: Ba/F3 cells expressing mutated Bcr-Abl / IM-resistant cell lines; test: Annexin V/PI apoptotic assay on Ba/F3 cells; assay type: cell-based; details: 5 μM
# Method: Apoptotic assay was performed on 1×10^6 cells and apoptotic cells were recognized by cytofluorimetric analysis of fluorescinated Annexin V (Roche) and PI uptake.
# [8] = tested on: phosphorylation of Bcr-Abl (Tyr245), Src (Tyr416) and Lyn (Tyr507); test: western blot of kinase phosphorylation in Ba/F3 cells; assay type: cell-based; details: 5 μM, up to 24th h of exposure, Imatinib-sensitive and resistant contexts
# Method: The inhibitory effects of S29 toward the phosphorylation of Bcr-Abl (Tyr245), Src (Tyr416) and Lyn (Tyr507) were assessed using western blot analysis. Whole cell lysates were obtained from 1×10^7 cells (either untreated or following 24 h and 48 h exposure to 5 μM S29) in lysis buffer.
# Protein lysates from whole cells were incubated overnight with the primary antibodies (anti-Abl phosphorylated at Tyr245, Cell Signaling; anti-Src phosphorylated at Tyr416, Cell Signaling; anti-Lyn phosphorylated at Tyr507, Cell Signaling; anti-Lyn, Biosource; anti-Beta-actin, Santa Cruz Biotechnology) and then 1 h at rt with the secondary antibodies (Amersham). Beta actin was used for protein loading control. Signal intensities from 3 repeated blots were quantified by a GS-700 Imagining densitometer (BioRad) equipped with a dedicated software (Molecular Analyst).
# SaOS-2 xenograft = SaOS-2 xenograft in nude mice; assay type: in vivo, CD 1 nude mice
# Method: In order to evaluate the effect of SI-83 in a preclinical experimental model of osteosarcoma the authors injected s.c. SaOS-2 cells together with Matrigel in nude mice. […] The authors divided mice in three groups containing each 4 mice: mice receiving vehicle (control); mice receiving 50 mg/kg SI-83; mice receiving 100 mg/kg SI-83. The administration of SI-83 determined at endpoint a reduction in xenograft growth respect to control measured as weight reduction (FIG. 6B1). At the dose of 100 mg/kg, SI-83 determined a significant reduction (P<0.01) in tumour weight of about 40% respect to control tumours. Also the administration of 50 mg/kg SI-83 determined a smaller (about 15%) but significant reduction (p<0.05) in tumour volume respect to control (FIG. 6B1). Xenograft tissues were processed for histologic evaluation of phospho-Src expression (FIG. 6B3). Tumour cells in the control group expressed detectable levels of phospho-Src.
# CD 1 nude mice (Charles River, Milan, Italy) were maintained under the guidelines established by the authors' Institution (University of L'Aquila, Medical School and Science and Technology School Board Regulations, complying with the Italian government regulation n.116 Jan. 27, 1992 for the use of laboratory animals). Before tumour cells implantation, mice were anesthesized with a mixture of ketamine (25 mg/mL)/xylazine (5 mg/mL). Xenografts were obtained by injecting s.c. 1×10^6 SaOS-2 cells in 100 μL of 12 mg/ml Matrigel (Becton Dickinson). Mice received daily the drug by per os administration at the doses indicated. Tumour growth was monitored daily and at the endpoint, after 26 days, the tumors were excided, weighted and processed for histology. Briefly tumors were fixed in 4% formaldehyde in 0.1 M phosphate buffer, pH 7.2 and embedded in paraffin. Slide-mounted tissue sections (4 μm thick) were deparaffinized in xylene and hydrated serially in 100, 95, and 80% ethanol. Endogenous peroxidases were quenched in 3% H2O2 in PBS for 1 h and then slides were incubated with anti human Src [pY416] phosphospecific antibody (Biosource, Camarillo, Calif., USA) for 1 h at room temperature.
# mouse osteoclasts = test: osteoclast bone resorption assay; assay type: cell-based
# From the text: It is very important to note that there is a significant difference in bone resorption for the control (DMSO) in the two experiments reported in FIG. 4. […] The method used to measure bone resorption is based on the growth in vitro of osteoclasts that then resorb bone. However, this cell-based assay is usually characterized by a significant variability, mainly due to the fact that the basic amount of bone resorption can vary among replicates. Although such a limitation, this assay is widely recognized as the gold standard to assess the ability of compounds to inhibit bone resorption by osteoclasts.^53
# MNNG cells = test: MTT cell viability assay on MNNG; assay type: cell-based, human; details: 48 h
# TE-85 = test: MTT cell viability assay on TE-85; assay type: cell-based, human; details: 48 h
# U-20S = test: MTT cell viability assay on U-20S; assay type: cell-based, human; details: 48 h
# MG63 = test: MTT cell viability assay on MG63; assay type: cell-based, human; details: 48 h
# in vitro = details: male, human, primary human osteoblasts
# [9] = tested on: human primary osteoblasts; test: Hoechst staining of primary osteoblasts; details: 25 μM
# Chain of recombinant human Src (P12931 whole entry): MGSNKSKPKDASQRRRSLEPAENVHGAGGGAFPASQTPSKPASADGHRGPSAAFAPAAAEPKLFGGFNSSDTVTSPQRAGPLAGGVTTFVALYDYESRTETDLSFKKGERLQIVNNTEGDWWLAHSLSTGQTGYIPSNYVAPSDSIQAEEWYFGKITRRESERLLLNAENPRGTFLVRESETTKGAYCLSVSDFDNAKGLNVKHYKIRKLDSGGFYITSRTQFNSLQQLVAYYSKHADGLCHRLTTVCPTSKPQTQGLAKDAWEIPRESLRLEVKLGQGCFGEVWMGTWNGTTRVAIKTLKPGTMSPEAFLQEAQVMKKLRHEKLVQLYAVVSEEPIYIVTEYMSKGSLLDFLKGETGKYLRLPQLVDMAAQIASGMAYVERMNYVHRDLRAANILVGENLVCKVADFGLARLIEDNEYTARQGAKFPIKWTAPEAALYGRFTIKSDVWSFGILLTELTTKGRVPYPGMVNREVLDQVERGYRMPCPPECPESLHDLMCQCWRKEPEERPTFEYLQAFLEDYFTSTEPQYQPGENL
smiles,measurement,setting,value
"CC(C)(C)n1nc(-c2ccc(Cl)cc2)c2c(N)ncnc21 [PP2, reference compound]",inhibition of phosphorylation of Src at Y416,[1],50%
same,pro-apoptotic effect (TUNEL),SaOS-2 cells [2],induced apoptosis
same,concentration at which 83% inhibition of cell viability is obtained,"SaOS-2 cells [3]; SaOS-2, MTT",higher than 50 μM
same,CV (%) after 24 h (cellular viability with respect to control),"SaOS-2 cells [3]; SaOS-2, MTT",36.8 ± 1.7%
same,CV (%) after 48 h (cellular viability with respect to control),"SaOS-2 cells [3]; SaOS-2, MTT",36.4 ± 1.6%
same,IC50,SaOS-2 cells [3],8.07 µM
same,tolerance of treatment by osteoblasts,normal human osteoblasts,did not tolerate drug treatment
same,percentage of Ca2+ inside calcification nodules,"normal human osteoblasts; twice a week, 1-3 weeks",always lower than control
same,reduction of osteoblast growth (inhibitory activity),[4],50%
same,cell cycle progression,SaOS-2 cells [5],stop cell cycle progression in G0 and G1 phases in a dose-dependent manner
same,reduction of pro-apoptotic effect on osteoblasts respecting to SaOS-2,[6],15%
Fc1ccc(CNc2ncnc3c2cnn3CC(Cl)c2ccc(Cl)cc2)cc1 (centres unmarked) [S-29],Ki,recombinant human Src,0.5 µM
same,apoptosis induction,"[7]; IM-resistant cell lines additioned with IL-3, after 24 h of exposure",apoptosis occurred
same,apoptosis induction,"[7]; mutated cell lines, after 48 h treatment",induced apoptotic death
same,Bcr-Abl and Lyn-Src kinase phosphorylation,[8],Complementary abrogation
CSc1nc(Nc2cccc(Cl)c2)c2cnn(CC(Cl)c3ccccc3)c2n1 (centres unmarked) [SI-83],Ki,recombinant human Src,0.6 µM
same,inhibition of phosphorylation of Src at Y416,[1],55%
same,reduction in tumour volume respect to control,"SaOS-2 xenograft; 50 mg/kg daily per os, endpoint day 26, p<0.05",about 15%
same,reduction in tumour weight respect to control,"SaOS-2 xenograft; 100 mg/kg daily per os, endpoint day 26, P<0.01",about 40%
same,signs of distress or loss of weight in mice,SaOS-2 xenograft; daily administration,did not determine any appreciable sign of distress or loss of weight
same,phospho-Src staining of tumour tissues,"SaOS-2 xenograft; treated groups, immunohistology Src [pY416]",faint or null staining
same,bone resorption,mouse osteoclasts; 10 and 1 μM,abrogate bone resorption
same,percent inhibition of bone resorption,mouse osteoclasts; reduced test dose (up to 1 nM),lower but significant
same,response of cell viability compared with SaOS-2,MNNG cells,even more responsive than SaOS-2
same,response of cell viability,TE-85,less susceptible
same,response of cell viability,U-20S,less susceptible
same,response of cell viability,MG63,less susceptible
same,pro-apoptotic effect (TUNEL),SaOS-2 cells [2],strongest pro-apoptotic effect
same,"viability at 48 h, 25 µM",in vitro,~80%
same,CV (%) after 24 h (cellular viability with respect to control),"SaOS-2 cells [3]; SaOS-2, MTT",17.1 ± 1.3%
same,CV (%) after 48 h (cellular viability with respect to control),"SaOS-2 cells [3]; SaOS-2, MTT",15.1 ± 0.7%
same,IC50,SaOS-2 cells [3],12.6 µM
same,cell morphology / DNA damage (Hoechst),[9],did not alter cell morphology or cause DNA damage
same,tolerance of treatment by osteoblasts,normal human osteoblasts,better tolerated
same,osteoblast viability,[4]; 12.5 μM,not affected at all
same,reduction of osteoblast growth (inhibitory activity),[4],20%
same,reduction of pro-apoptotic effect on osteoblasts respecting to SaOS-2,[6],79%
same,apoptosis induced in osteoblasts respecting to PP2,"[6]; at respective IC50, time course 24, 48, 96 h",half of apoptosis
